US7230017B2, “Dihydropyridinone derivatives” (Bayer Healthcare AG, priority 2002, dated 2007)

Each molecule was assayed against T1, human neutrophil elastase (HNE) (Homo sapiens, UniProt P08246) (assay: In vitro inhibition of HNE using a fluorogenic peptide substrate (continuous read-out signal, 384 MTP assay format)). Settings: substrate MeOSuc-Ala-Ala-Pro-Val-AMC, 37° C.
T1 construct: purchased SERVA Electrophoresis GmbH, Heidelberg, Germany #20927.01
T1 sequence (P08246 30-267): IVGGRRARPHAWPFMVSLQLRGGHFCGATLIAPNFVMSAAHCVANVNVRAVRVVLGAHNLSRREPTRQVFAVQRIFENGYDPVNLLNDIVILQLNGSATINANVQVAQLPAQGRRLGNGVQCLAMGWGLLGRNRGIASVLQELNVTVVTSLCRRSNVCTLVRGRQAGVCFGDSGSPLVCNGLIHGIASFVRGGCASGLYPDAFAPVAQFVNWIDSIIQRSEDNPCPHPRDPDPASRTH
Format: biochemical
Experimental: I. In Vitro Enzyme Assays of Human Neutrophil Elastase (HNE)
assay buffer: 0.1 M HEPES-NaOH buffer pH 7.4, 0.5 M NaCl, 0.1% (w/v) bovine serum albumin;
suitable concentration (see below) of substrate in assay buffer;
suitable concentration of test compounds diluted with assay buffer from a 10 mM stock solution in DMSO.
The test solution is prepared by mixing 10 μl of test compound dilution, 20 μl of HNE enzyme dilution (final concentration 8–0.4 μU/ml, routinely 2.1 μU/ml) and 20 μl of substrate dilution (final concentration 1 mM–1 μM, routinely 20 μM), respectively. The solution is incubated for 0–2 hrs at 37° C. (routinely one hour). The fluorescence of the liberated AMC due to the enzymatic reaction is measured at 37° C. (TECAN spectra fluor plus plate reader). […] IC50 values are determined by RFU-versus-[I] plots. Km and Km(app.) values are determined by Lineweaver-Burk plots and converted to Ki values by Dixon plots.

| IC50 | Molecule |
| --- | --- |
| 0.008 µM | CC1=C(C#N)C(c2ccc(C#N)cc2)C(C(N)=O)C(=O)N1c1cccc(C(F)(F)F)c1 (single isomer, unassigned; (-)) [Example 98, (−)-5-Cyano-4-(4-cyanophenyl)-6-methyl-2-oxo-1-[3-(trifluoromethyl)phenyl]-1,2,3,4-tetrahydro-3-pyridinecarboxamide] |
| 0.013 µM | CC1=C(C#N)C(c2ccc(C#N)cc2)C(C(N)=O)C(=O)N1c1cccc(C(F)(F)F)c1 (stereo not shown) [Example 7, 5-Cyano-4-(4-cyanophenyl)-6-methyl-2-oxo-1-[3-(trifluoromethyl)phenyl]-1,2,3,4-tetrahydro-3-pyridinecarboxamide] |
| 0.015 µM | CC1=C(C#N)C(c2ccc(C#N)cc2)C(C(=O)NCCO)C(=O)N1c1cccc(C(F)(F)F)c1 (stereo not shown) [Example 68, 5-Cyano-4-(4-cyanophenyl)-6-methyl-2-oxo-1-[3-(trifluoromethyl)phenyl]-1,2,3,4-tetrahydropyridine-3-carboxylic acid (2-hydroxyethyl)amide] |
| 0.2 µM | CCOC(=O)C1=C(C)N(c2cccc(C(F)(F)F)c2)C(=O)C(C(=O)OCC)C1c1cc2cc(C#N)ccc2o1 (stereo not shown) [Example 15, Diethyl 4-(5-cyano-1-benzofuran-2-yl)-6-methyl-2-oxo-1-[3-(trifluoromethyl)phenyl]-1,2,3,4-tetrahydro-3,5-pyridinedicarboxylate] |
| 0.025 µM | CC1=C(C#N)C(c2ccc(C#N)cc2)C(C(=O)N(C)C)C(=O)N1c1cccc(C(F)(F)F)c1 (stereo not shown) [Example 12, 5-Cyano-4-(4-cyanophenyl)-N,N,6-trimethyl-2-oxo-1-[3-(trifluoromethyl)phenyl]-1,2,3,4-tetrahydro-3-pyridinecarboxamide] |
| 0.35 µM | CCNC(=O)C1=C(C)N(c2cccc(C(F)(F)F)c2)C(=O)CC1c1ccc(C#N)cc1 (stereo not shown) [Example 77] |
| 0.025 µM | CC1=C(C#N)C(c2ccc(C#N)cc2)C(C(=O)NCCC(=O)O)C(=O)N1c1cccc(C(F)(F)F)c1 (stereo not drawn) [Example 19, N-({5-Cyano-4-(4-cyanophenyl)-6-methyl-2-oxo-1-[3-(trifluoromethyl)phenyl]-1,2,3,4-tetrahydro-3-pyridinyl}carbonyl)-β-alanine] |
| 0.03 µM | CCOC(=O)C1=C(C)N(c2cccc(C(F)(F)F)c2)C(=O)C(C(=O)OCC)C1c1ccc(C#N)cc1 (stereo not shown) [Example 1] |
| 0.02 µM | CCOC(=O)C1=C(C)N(c2cccc(C(F)(F)F)c2)C(=O)C(C(N)=O)C1c1ccc(C#N)cc1 (stereo not shown) [Example 3] |
| 0.03 µM | COCCNC(=O)C1C(=O)N(c2cccc(C(F)(F)F)c2)C(C)=C(C#N)C1c1ccc(C#N)cc1 (stereo not shown) [Example 20, 5-Cyano-4-(4-cyanophenyl)-N-(2-methoxyethyl)-6-methyl-2-oxo-1-[3-(trifluoromethyl)phenyl]-1,2,3,4-tetrahydro-3-pyridinecarboxamide] |
| 0.025 µM | CC(=O)C1=C(C)N(c2cccc(C(F)(F)F)c2)C(=O)C(C(=O)N(C)C)C1c1ccc(C#N)cc1 (stereo not shown) [Example 13, 5-Acetyl4-(4-cyanophenyl)-N,N,6-trimethyl-2-oxo-1-[3-(trifluoromethyl)phenyl]-1,2,3,4-tetrahydro-3-pyridinecarboxamide] |

The molecules below were run on human polymorphonuclear cells (PMNs) (assay: In vitro PMN elastolysis assay (3H-elastin)). Settings: at 1.2 μM; n=3 different donors at 3.6×10^5 cells per well; 4 hours at 37° C.
Format: cell-based
Experimental: In Vitro PMN Elastolysis Assay
This assay is used to determine the elastolytic potential of human polymorphonuclear cells (PMNs) and assess the proportion of degradation due to neutrophil elastase [cf. Z. W. She et al., Am. J. Respir. Cell. Mol. Biol. 9, 386–392 (1993)].
Tritiated elastin, in suspension, is coated on to a 96 well plate at 10 μg per well. Test and reference [ZD-0892 (J. Med. Chem. 40, 1876–1885, 3173–3181 (1997), WO 95/21855) and al protease inhibitor (α1PI)] compounds are added to the wells at the appropriate concentrations. Human PMNs are separated from peripheral venous blood of healthy donors and resuspended in culture media. The neutrophils are added to the coated wells at concentrations ranging between 1×10^6 to 1×10^5 cells per well. Porcine pancreatic elastase (1.3 μM) is used as a positive control for the assay, and α1PI (1.2 μM) is used as the positive inhibitor of neutrophil elastase. The cellular control is PMNs without compound at each appropriate cell density. The cells plus compounds are incubated in a humidified incubator at 37° C. for 4 hours. The plates are centrifuged to allow the harvest of cell supernatant only. […] The plates are dried until no liquid is visible in the wells and read in a beta counter for 3 minutes per well. […]
The compounds of this invention are evaluated for their inhibitory activity in this HNE-dependent model of neutrophil elastolysis.

| Molecule | inhibition of elastolysis (mean±s.e.m.) |
| --- | --- |
| α1PI: al protease inhibitor (α1PI), used as the positive inhibitor of neutrophil elastase | 83.46±3.97% |

Same assay, conditions: n=2 different donors at 3.6×10^5 cells per well; 4 hours at 37° C.; read-out: IC50 (mean±s.e.m.)

| IC50 | Molecule |
| --- | --- |
| 0.0455 ± 0.00775 µM | COc1ccc(C(=O)N[C@H](C(=O)N2CCC[C@H]2C(=O)N[C@H](C(=O)C(F)(F)F)C(C)C)C(C)C)cc1 [ZD-0892] |
